Test results from PubChem BioAssay AID1963847 (Molecular Pharmacology Branch, DTP, NCI, 2024).

Test system: 415267-285-R-J2-PDC complex spheroid viability
Experiment: Anticancer human tumor 415267-285-R-J2-PDC patient-derived breast carcinoma cell line growth inhibition [POLQ]
Settings: for IC50: curve of first compound; for viability, T/C: stronger effect = lower value; active means viability on the fitted dose curve at most 10% of control; inactive means the rest
Procedure, shortened: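 Growth inhibition in 3D: complex spheroids (tumor PDC, HUVEC, MSC) treated with POLQ inhibitor combinations; where Cmax unknown, highest tested concentration 10 microM, except SN-38 at 1 microM.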

[1] = second compound 0.0316 µM, first compound 0.0316 µM
[2] = second compound 0.0316 µM, first compound 0.1 µM
[3] = second compound 0.0316 µM, first compound 0.316 µM
[4] = second compound 0.0316 µM, first compound 1 µM
[5] = second compound 0.0316 µM, first compound 3.16 µM
[6] = second compound 0.0316 µM, first compound 10 µM
[7] = second compound 0.1 µM, first compound 0.0316 µM
[8] = second compound 0.1 µM, first compound 0.1 µM
[9] = second compound 0.1 µM, first compound 0.316 µM
[10] = second compound 0.1 µM, first compound 1 µM
[11] = second compound 0.1 µM, first compound 3.16 µM
[12] = second compound 0.1 µM, first compound 10 µM
[13] = second compound 0.316 µM, first compound 0.0316 µM
[14] = second compound 0.316 µM, first compound 0.1 µM
[15] = second compound 0.316 µM, first compound 0.316 µM
[16] = second compound 0.316 µM, first compound 1 µM
[17] = second compound 0.316 µM, first compound 3.16 µM
[18] = second compound 0.316 µM, first compound 10 µM
[19] = second compound 1 µM, first compound 0.0316 µM
[20] = second compound 1 µM, first compound 0.1 µM
[21] = second compound 1 µM, first compound 0.316 µM
[22] = second compound 1 µM, first compound 1 µM
[23] = second compound 1 µM, first compound 3.16 µM
[24] = second compound 1 µM, first compound 10 µM
[25] = second compound 3.16 µM, first compound 0.0316 µM
[26] = second compound 3.16 µM, first compound 0.1 µM
[27] = second compound 3.16 µM, first compound 0.316 µM
[28] = second compound 3.16 µM, first compound 1 µM
[29] = second compound 3.16 µM, first compound 3.16 µM
[30] = second compound 3.16 µM, first compound 10 µM
[31] = second compound 10 µM, first compound 0.0316 µM
[32] = second compound 10 µM, first compound 0.1 µM
[33] = second compound 10 µM, first compound 0.316 µM
[34] = second compound 10 µM, first compound 1 µM
[35] = second compound 10 µM, first compound 3.16 µM
[36] = second compound 10 µM, first compound 10 µM
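Further: spheroids exposed to compounds for one week before readout.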
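Wherever viability, T/C is given: luminescence used as stand-in measure of viable cells; 100% = DMSO vehicle control viability.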

C=CC(=O)N1CCN(c2nc(=O)n(-c3c(C)ccnc3C(C)C)c3nc(-c4c(O)cccc4F)c(F)cc23)C(C)C1 (stereo unspecified) + COC1C(OC(N)=O)C(O)C(Oc2ccc3c(O)c(NC(=O)c4ccc(O)c(CC=C(C)C)c4)c(=O)oc3c2C)OC1(C)C
inactive: viability, T/C [1] 103% | viability, T/C [2] 93.4% | viability, T/C [3] 105% | viability, T/C [4] 92.6% | viability, T/C [5] 112% | viability, T/C [6] 92.2% | viability, T/C [7] 85.4% | viability, T/C [8] 97.5% | viability, T/C [9] 98.5% | viability, T/C [10] 93% | viability, T/C [11] 108% | viability, T/C [12] 103% | viability, T/C [13] 103% | viability, T/C [14] 89.8% | viability, T/C [15] 82.8% | viability, T/C [16] 107% | viability, T/C [17] 112% | viability, T/C [18] 93% | viability, T/C [19] 98.6% | viability, T/C [20] 94.5% | viability, T/C [21] 93.9% | viability, T/C [22] 97% | viability, T/C [23] 97.5% | viability, T/C [24] 98.2% | viability, T/C [25] 101% | viability, T/C [26] 102% | viability, T/C [27] 97.2% | viability, T/C [28] 101% | viability, T/C [29] 101% | viability, T/C [30] 95.9% | viability, T/C [31] 95.1% | viability, T/C [32] 95.8% | viability, T/C [33] 112% | viability, T/C [34] 109% | viability, T/C [35] 90.6% | viability, T/C [36] 86.9%
> 10 µM: IC50 (second compound 0.0316 µM) | IC50 (second compound 0.1 µM) | IC50 (second compound 0.316 µM) | IC50 (second compound 1 µM) | IC50 (second compound 3.16 µM) | IC50 (second compound 10 µM)

CCc1cc2c(N3CCc4c(cc(Cn5ccnc5)cc4-c4cn(C)nc4C(F)(F)F)C3=O)cc(C)nc2c(OC)n1 + Nc1ccc(C#CCN(C(=O)Cc2ncc(C(F)(F)F)cc2C(F)(F)F)c2ccc(F)cc2)nn1
> 10 µM: IC50 (second compound 0.0316 µM) | IC50 (second compound 0.1 µM) | IC50 (second compound 0.316 µM) | IC50 (second compound 1 µM) | IC50 (second compound 3.16 µM) | IC50 (second compound 10 µM)
inactive: viability, T/C [1] 91.4% | viability, T/C [2] 91.6% | viability, T/C [3] 88.7% | viability, T/C [4] 85.9% | viability, T/C [5] 82.5% | viability, T/C [6] 66.7% | viability, T/C [7] 99.5% | viability, T/C [8] 87.1% | viability, T/C [9] 80.8% | viability, T/C [10] 94.8% | viability, T/C [11] 88.1% | viability, T/C [12] 66.8% | viability, T/C [13] 91.7% | viability, T/C [14] 88.8% | viability, T/C [15] 98.4% | viability, T/C [16] 93.2% | viability, T/C [17] 80% | viability, T/C [18] 68.1% | viability, T/C [19] 86% | viability, T/C [20] 94.7% | viability, T/C [21] 101% | viability, T/C [22] 94.9% | viability, T/C [23] 84% | viability, T/C [24] 64.1% | viability, T/C [25] 97.6% | viability, T/C [26] 87.9% | viability, T/C [27] 86.5% | viability, T/C [28] 104% | viability, T/C [29] 86.6% | viability, T/C [30] 70.8% | viability, T/C [31] 98.9% | viability, T/C [32] 79.9% | viability, T/C [33] 97.4% | viability, T/C [34] 82.2% | viability, T/C [35] 79.1% | viability, T/C [36] 65.1%

O=C(c1cc(Cc2n[nH]c(=O)c3ccccc23)ccc1F)N1CCN(C(=O)C2CC2)CC1 + Nc1ccc(C#CCN(C(=O)Cc2ncc(C(F)(F)F)cc2C(F)(F)F)c2ccc(F)cc2)nn1
> 10 µM: IC50 (second compound 0.0316 µM) | IC50 (second compound 0.1 µM) | IC50 (second compound 0.316 µM) | IC50 (second compound 1 µM) | IC50 (second compound 3.16 µM) | IC50 (second compound 10 µM)
inactive: viability, T/C [1] 100% | viability, T/C [2] 106% | viability, T/C [3] 106% | viability, T/C [4] 97.5% | viability, T/C [5] 96% | viability, T/C [6] 99% | viability, T/C [7] 98.4% | viability, T/C [8] 103% | viability, T/C [9] 109% | viability, T/C [10] 97.2% | viability, T/C [11] 108% | viability, T/C [12] 90.8% | viability, T/C [13] 106% | viability, T/C [14] 115% | viability, T/C [15] 101% | viability, T/C [16] 114% | viability, T/C [17] 101% | viability, T/C [18] 105% | viability, T/C [19] 108% | viability, T/C [20] 109% | viability, T/C [21] 108% | viability, T/C [22] 98.5% | viability, T/C [23] 110% | viability, T/C [24] 108% | viability, T/C [25] 101% | viability, T/C [26] 101% | viability, T/C [27] 100% | viability, T/C [28] 101% | viability, T/C [29] 105% | viability, T/C [30] 115% | viability, T/C [31] 98.9% | viability, T/C [32] 96.9% | viability, T/C [33] 113% | viability, T/C [34] 107% | viability, T/C [35] 97.8% | viability, T/C [36] 102%
